Measurements as given in ChEMBL document CHEMBL5053545, “Iterative Structure-Based Optimization of Short Peptides Targeting the Bacterial Sliding Clamp” (J Med Chem, 2021).
Calls of active or inactive are those of the source. The rule behind the calls is not given here. *1 amine or outer side, *2 acyl side, *3 side chain or, on linkers, in order; H or OH if unused. Where a SMILES comes first, the peptide text is derived from it. [ ]: non-standard residue; d: D form. The star is where a group is joined. Acryloyl(3-(3-pyridyl),E) = O=C(/C=C/c1cccnc1)*; Phe(3,4-Cl2) = N[C@@H](Cc1ccc(Cl)c(Cl)c1)C(=O)O; Phe(3,4-F2) = N[C@@H](Cc1ccc(F)c(F)c1)C(=O)O; Acetyl(1-naphthyl) = O=C(Cc1cccc2ccccc12)*; Oic = O=C(O)[C@@H]1C[C@@H]2CCCC[C@@H]2N1; Cinnamoyl(4-F) = O=C(/C=C/c1ccc(F)cc1)*; Hydrocinnamoyl = O=C(CCc1ccccc1)*; NH(4-MeO-phenyl) = COc1ccc(N*)cc1; X2 = O=C(CN(Cc1ccccn1)[*:1])[*:2]; X3 = CN(C)/C(=N\CC(=O)*)N1CCOCC1; NFurfurylGly = O=C(O)CNCc1ccco1; Cha = N[C@@H](CC1CCCCC1)C(=O)O; NMeD = CN[C@@H](CC(=O)O)C(=O)O; X5 = CN(C)C(=NCC(=O)*)N(C)C; X1 = O=C(/C=C/c1ccccc1)*; CO = O=C([*:1])[*:2]; Sar = CNCC(=O)O

Tests used:
Escherichia coli [1] = assay: Binding affinity to Escherichia coli sliding clamp assessed as association rate constant by ITC analysis
Escherichia coli [2] = assay: Binding affinity to Escherichia coli sliding clamp assessed as gibbs free energy change by ITC analysis
Escherichia coli [3] = assay: Binding affinity to Escherichia coli sliding clamp assessed as dissociation rate constant by ITC analysis
[4] = Inhibition of SC-dependent DNA replication in Escherichia coli using pU118 DNA as substrate preincubated for 10 mins followed by substrate addition and measured after 6 mins by PAGE electrophoresis
[5] = Binding affinity to Escherichia coli sliding clamp assessed as dissociation constant by ITC analysis
Escherichia coli [6] = assay: Antimicrobial activity against Escherichia coli D22 at 128 ug/ml incubated 18 to 24 hrs by broth microdilution method; format: functional, organism-based; conditions: dose 128.0 µg/ml, time 18-24 hrs

With `CC(=O)N[C@@H](CCC(N)=O)C(=O)N[C@@H](CC1CCCCC1)C(=O)N[C@@H](CC(=O)O)C(=O)N[C@@H](CC(C)C)C(=O)N[C@@H](Cc1ccccc1)C(=O)O` (Ac-Q[Cha]DLF-OH) the K (Escherichia coli [1]) was 4 10^4/M/s, the deltaG (Escherichia coli [2]) was -9.2 kcal/mol and the K (Escherichia coli [3]) was 7.4 10^-3/s. For the same compound, the IC50 [4] was 3200 nM and the Kd [5] was 194 nM.
For `CC(=O)N[C@@H](CCC(N)=O)C(=O)N[C@@H](CC1CCCCC1)C(=O)N[C@@H](CC(=O)O)C(=O)N[C@@H](CC(C)C)C(=O)N1[C@H](C(=O)N[C@@H](Cc2ccc(Cl)c(Cl)c2)C(=O)O)C[C@@H]2CCCC[C@@H]21` (Ac-Q[Cha]DL[Oic][Phe(3,4-Cl2)]-OH), the Activity (Escherichia coli [6]) was “inactive”, the K (Escherichia coli [1]) was 6 10^4/M/s and the deltaG (Escherichia coli [2]) was -10.1 kcal/mol. The K (Escherichia coli [3]) was 2.3 10^-3/s, the IC50 [4] was 150 nM and the Kd [5] was 39 nM.
In the case of `CC(=O)N[C@@H](CCC(N)=O)C(=O)N[C@@H](CC1CCCCC1)C(=O)N[C@@H](CC(=O)O)C(=O)N[C@@H](CC(C)C)C(=O)N(C)CC(=O)N[C@@H](CC(C)C)C(=O)O` (Ac-Q[Cha]DL[Sar]L-OH), the Activity (Escherichia coli [6]) is reported as “inactive”, the K (Escherichia coli [1]) is reported as 4 10^4/M/s and the deltaG (Escherichia coli [2]) is reported as -8.5 kcal/mol. For the same compound, the K (Escherichia coli [3]) was 2.1 10^-2/s and the Kd [5] was 583 nM.
In the case of `CC(C)C[C@H](NC(=O)[C@H](CC(=O)O)NC(=O)[C@H](CC1CCCCC1)NC(=O)[C@H](CCC(N)=O)NC(=O)CNCc1ccco1)C(=O)N[C@@H](Cc1ccccc1)C(=O)O` (H-[NFurfurylGly]Q[Cha]DLF-OH), the K (Escherichia coli [1]) is reported as 4.8 10^4/M/s, the deltaG (Escherichia coli [2]) is reported as -9.2 kcal/mol and the K (Escherichia coli [3]) is reported as 8.6 10^-3/s. The Kd [5] was 171 nM.
With `CC(C)C[C@H](NC(=O)[C@H](CC(=O)O)NC(=O)[C@H](CC1CCCCC1)NC(=O)[C@H](CCC(N)=O)NC(=O)CNCc1ccccn1)C(=O)N[C@@H](Cc1ccccc1)C(=O)O` (H-[X2]Q[Cha]DLF-OH) the K (Escherichia coli [1]) was 3.4 10^4/M/s, the deltaG (Escherichia coli [2]) was -9.2 kcal/mol and the K (Escherichia coli [3]) was 5.7 10^-3/s. The Kd [5] was 172 nM.
For `CC(C)C[C@H](NC(=O)[C@H](CC(=O)O)NC(=O)[C@H](CC1CCCCC1)NC(=O)[C@H](CCC(N)=O)NC(=O)CCc1ccccc1)C(=O)N[C@@H](Cc1ccccc1)C(=O)O` (Hydrocinnamoyl-Q[Cha]DLF-OH), the K (Escherichia coli [1]) was 5.5 10^4/M/s, the deltaG (Escherichia coli [2]) was -9.1 kcal/mol and the K (Escherichia coli [3]) was 6.7 10^-3/s. For the same compound, the Kd [5] was 123 nM.
With `CC(C)C[C@H](NC(=O)[C@H](CC(=O)O)NC(=O)[C@H](CC1CCCCC1)NC(=O)[C@H](CCC(N)=O)NC(=O)/C=C/c1ccccc1)C(=O)N[C@@H](Cc1ccccc1)C(=O)O` (X1-Q[Cha]DLF-OH) the Activity (Escherichia coli [6]) was “inactive”, the K (Escherichia coli [1]) was 4.6 10^4/M/s and the deltaG (Escherichia coli [2]) was -9.4 kcal/mol. For the same compound, the K (Escherichia coli [3]) was 6.5 10^-3/s and the Kd [5] was 129 nM.
In the case of `CC(C)C[C@H](NC(=O)[C@@H]1CCCN1C(=O)[C@H](CC(C)C)NC(=O)[C@H](CC(=O)O)NC(=O)[C@H](CC1CCCCC1)NC(=O)[C@H](CCC(N)=O)NC(=O)/C=C/c1ccccc1)C(=O)O` (X1-Q[Cha]DLPL-OH), the K (Escherichia coli [1]) is reported as 6 10^4/M/s, the deltaG (Escherichia coli [2]) is reported as -9.4 kcal/mol and the K (Escherichia coli [3]) is reported as 8 10^-3/s. It also gave a Kd [5] of 132 nM.
In the case of `CC(C)C[C@H](NC(=O)[C@H](CC(=O)O)NC(=O)[C@H](CC1CCCCC1)NC(=O)[C@H](CCC(N)=O)NC(=O)C/N=C(\N(C)C)N1CCOCC1)C(=O)N[C@@H](Cc1ccccc1)C(=O)O` (X3-Q[Cha]DLF-OH), the K (Escherichia coli [1]) is reported as 3.4 10^4/M/s, the deltaG (Escherichia coli [2]) is reported as -9 kcal/mol and the K (Escherichia coli [3]) is reported as 1 10^-2/s. For the same compound, the Kd [5] was 276 nM.
With `CC(C)C[C@H](NC(=O)[C@H](CC(=O)O)NC(=O)[C@H](CC1CCCCC1)NC(=O)[C@H](CCC(N)=O)NC(=O)CN=C(N(C)C)N(C)C)C(=O)N[C@@H](Cc1ccccc1)C(=O)O` (X5-Q[Cha]DLF-OH) the K (Escherichia coli [1]) was 3.4 10^4/M/s, the deltaG (Escherichia coli [2]) was -8.7 kcal/mol and the K (Escherichia coli [3]) was 1.1 10^-2/s. For the same compound, the Kd [5] was 353 nM.
With `CC(C)C[C@H](NC(=O)[C@H](CC(=O)O)NC(=O)[C@H](CC1CCCCC1)NC(=O)[C@H](CCC(N)=O)NC(=O)Cc1cccc2ccccc12)C(=O)N[C@@H](Cc1ccccc1)C(=O)O` ({Acetyl(1-naphthyl)}-Q[Cha]DLF-OH) the K (Escherichia coli [1]) was 6.5 10^4/M/s, the deltaG (Escherichia coli [2]) was -9.6 kcal/mol and the K (Escherichia coli [3]) was 5.7 10^-3/s. For the same compound, the Kd [5] was 89 nM.
For `CC(C)C[C@H](NC(=O)[C@H](CC(=O)O)NC(=O)[C@H](CC1CCCCC1)NC(=O)[C@H](CCC(N)=O)NC(=O)/C=C/c1cccnc1)C(=O)N[C@@H](Cc1ccccc1)C(=O)O` ({Acryloyl(3-(3-pyridyl),E)}-Q[Cha]DLF-OH), the Activity (Escherichia coli [6]) was “inactive”, the K (Escherichia coli [1]) was 4.6 10^4/M/s and the deltaG (Escherichia coli [2]) was -9.3 kcal/mol. The K (Escherichia coli [3]) was 7.4 10^-3/s and the Kd [5] was 156 nM.
With `CC(C)C[C@H](NC(=O)[C@H](CC(=O)O)N(C)C(=O)[C@H](CC1CCCCC1)NC(=O)[C@H](CCC(N)=O)NC(=O)/C=C/c1cccnc1)C(=O)N1CCC[C@H]1C(=O)N[C@@H](Cc1ccccc1)C(=O)O` ({Acryloyl(3-(3-pyridyl),E)}-Q[Cha][NMeD]LPF-OH) the Activity (Escherichia coli [6]) was “inactive”, the K (Escherichia coli [1]) was 1.4 10^5/M/s and the deltaG (Escherichia coli [2]) was -10.2 kcal/mol. For the same compound, the K (Escherichia coli [3]) was 5.2 10^-3/s and the Kd [5] was 35 nM.
For `CC(C)C[C@H](NC(=O)[C@@H]1CCCN1C(=O)[C@H](CC(C)C)NC(=O)[C@H](CC(=O)O)N(C)C(=O)[C@H](CC1CCCCC1)NC(=O)[C@H](CCC(N)=O)NC(=O)/C=C/c1cccnc1)C(=O)O` ({Acryloyl(3-(3-pyridyl),E)}-Q[Cha][NMeD]LPL-OH), the K (Escherichia coli [1]) was 6.3 10^4/M/s, the deltaG (Escherichia coli [2]) was -9.2 kcal/mol and the K (Escherichia coli [3]) was 1.1 10^-2/s. It also gave a Kd [5] of 177 nM.
For `CC(C)C[C@H](NC(=O)[C@H](CC(=O)O)N(C)C(=O)[C@H](CC1CCCCC1)NC(=O)[C@H](CCC(N)=O)NC(=O)/C=C/c1cccnc1)C(=O)N1[C@H](C(=O)N[C@@H](Cc2ccccc2)C(=O)O)C[C@@H]2CCCC[C@@H]21` ({Acryloyl(3-(3-pyridyl),E)}-Q[Cha][NMeD]L[Oic]F-OH), the K (Escherichia coli [1]) was 4.7 10^4/M/s, the deltaG (Escherichia coli [2]) was -9.5 kcal/mol and the K (Escherichia coli [3]) was 5.5 10^-3/s. For the same compound, the Kd [5] was 118 nM.
For `CC(C)C[C@H](NC(=O)[C@H](CC(=O)O)N(C)C(=O)[C@H](CC1CCCCC1)NC(=O)[C@H](CCC(N)=O)NC(=O)/C=C/c1cccnc1)C(=O)N[C@@H](Cc1ccc(Cl)c(Cl)c1)C(=O)O` ({Acryloyl(3-(3-pyridyl),E)}-Q[Cha][NMeD]L[Phe(3,4-Cl2)]-OH), the Activity (Escherichia coli [6]) was “inactive”, the K (Escherichia coli [1]) was 1.1 10^5/M/s and the deltaG (Escherichia coli [2]) was -10.1 kcal/mol. For the same compound, the K (Escherichia coli [3]) was 5.5 10^-3/s and the Kd [5] was 46 nM.
With `CC(C)C[C@H](NC(=O)[C@H](CC(=O)O)NC(=O)[C@H](CC1CCCCC1)NC(=O)[C@H](CCC(N)=O)NC(=O)/C=C/c1ccc(F)cc1)C(=O)N[C@@H](Cc1ccccc1)C(=O)O` ({Cinnamoyl(4-F)}-Q[Cha]DLF-OH) the K (Escherichia coli [1]) was 4.6 10^4/M/s, the deltaG (Escherichia coli [2]) was -9.3 kcal/mol and the K (Escherichia coli [3]) was 6.3 10^-3/s. It also gave a Kd [5] of 144 nM.
With `CC(C)C[C@H](NC(=O)[C@H](CC(=O)O)N(C)C(=O)[C@H](CC1CCCCC1)NC(=O)[C@H](CCC(N)=O)NC(=O)/C=C/c1ccc(F)cc1)C(=O)N[C@@H](Cc1ccc(F)c(F)c1)C(=O)O` ({Cinnamoyl(4-F)}-Q[Cha][NMeD]L[Phe(3,4-F2)]-OH) the K (Escherichia coli [1]) was 5.1 10^4/M/s, the deltaG (Escherichia coli [2]) was -9.6 kcal/mol and the K (Escherichia coli [3]) was 5.7 10^-3/s. For the same compound, the Kd [5] was 99 nM.
With `COc1ccc(NC(=O)N[C@@H](CCC(N)=O)C(=O)N[C@@H](CC2CCCCC2)C(=O)N[C@@H](CC(=O)O)C(=O)N[C@@H](CC(C)C)C(=O)N[C@@H](Cc2ccccc2)C(=O)O)cc1` ({NH(4-MeO-phenyl)-CO}-Q[Cha]DLF-OH) the K (Escherichia coli [1]) was 4 10^4/M/s, the deltaG (Escherichia coli [2]) was -9.8 kcal/mol and the K (Escherichia coli [3]) was 2.8 10^-3/s. The Kd [5] was 73 nM.
In the case of `COc1ccc(NC(=O)N[C@@H](CCC(N)=O)C(=O)N[C@@H](CC2CCCCC2)C(=O)N(C)[C@@H](CC(=O)O)C(=O)N[C@@H](CC(C)C)C(=O)N[C@@H](Cc2ccc(Cl)c(Cl)c2)C(=O)O)cc1` ({NH(4-MeO-phenyl)-CO}-Q[Cha][NMeD]L[Phe(3,4-Cl2)]-OH), the K (Escherichia coli [1]) is reported as 4.2 10^4/M/s, the deltaG (Escherichia coli [2]) is reported as -9 kcal/mol and the K (Escherichia coli [3]) is reported as 1.1 10^-3/s. It also gave a Kd [5] of 266 nM.
